Columns and labels:
[1] = Release profile of amantadine and oseltamivir combination (USP II Paddle system, water); assay type: physicochemical
Source text: The cumulative fraction is the amount of drug substance released from the formulation matrix to the serum or gut environment (e.g., U.S. Pat. No. 4,839,177) or as measured with a USP II Paddle system using water as the dissolution medium.

[2] = in vivo; cited from earlier work
[3] = Time to steady state concentration with extended release amantadine or rimantadine; settings: patient with influenza A; 100 mg or more once daily; formulated as in Example 5
[4] = cited from earlier work; for Human PK T½ / Tmax: humans

SMILES	cum. fraction ([1]; Time 1)	cum. fraction ([1]; Time 2)	cum. fraction ([1]; Time 4)	cum. fraction ([1]; Time 8)	cum. fraction ([1]; Time 12)	cum. fraction ([1]; Time 16)	cum. fraction ([1]; Time 20)	cum. fraction ([1]; Time 24)	Dose Dependent Toxicity [2]	time to therapeutically effective steady state serum concentration [3]	T½ ([4]; head of Table 4)	Human PK T½ [4]	Tmax [4]
NC12CC3CC(CC(C3)C1)C2 [Amantadine, amantadine]	0.2	0.3	0.4	0.5	0.6	0.7	0.8	0.9	–	–	–	–	–
CC(N)C12CC3CC(CC(C3)C1)C2 (centres unmarked) [Rimantadine, rimantadine]	–	–	–	–	–	–	–	–	Insomnia	three	–	–	–
CCOC(=O)C1=C[C@@H](OC(CC)CC)[C@H](NC(C)=O)[C@@H](N)C1 [oseltamivir/TAMIFLU ®, oseltamivir]	0.1	0.15	0.2	0.35	0.5	0.65	0.8	1	–	–	T½ = 3 hrs	3 h	3 to 4 h
CC(=O)N[C@H]1[C@H]([C@H](O)[C@H](O)CO)OC(C(=O)O)=C[C@@H]1NC(=N)N [zanamivir/RELENZA ®, zanamivir]	–	–	–	–	–	–	–	–	–	–	–	2.5 to 5.1 h	1 to 2 h

From US20100160431A1, “Methods and Compositions for the Treatment of Viral Infections” (priority 2006, published 2010)
